Measurements as given in patent US9080154B1, “Cancer stem cell survivor lines” (BOWLING GREEN STATE UNIVERSITY, priority 2012, dated 2015).

Columns and labels:
ALDH1A1 [1] = experiment: ALDH1A1 immunocytochemistry of curcumin-surviving lines; type: cell-based, human; conditions: survived 60 μM curcumin
Description: (§1) To select for a curcumin-surviving cell subpopulation, each of the ESCC cell lines was cultured in 100-mm dishes (1×10^5 cells/dish) with complete DMEM and incubated at 37° C. until reaching near confluency, approximately 80%. After incubation, the medium was removed and the cells were incubated in complete DMEM containing either 40 or 60 μM curcumin in dissolved in 0.2% DMSO for 30 hrs. After incubation, the medium-containing curcumin was removed and replaced with complete DMEM to allow cells that survived the treatment to grow. After the surviving cells formed colonies (normally four weeks after treatment), the colonies were counted, trypsinized, and passaged. The cell lines that developed were designated the curcumin-surviving cell lines.
(§2) To assess the expression of the stem cell markers ALDH1A1 and CD44 in both the original ESCC cell lines and the curcumin-surviving cell lines, each line was grown on glass cover slips in complete DMEM. After two days, the cover slips were rinsed with PBS and fixed with methanol for 5 min. The cover slips were then washed three times with PBS, exposed to 0.3% hydrogen peroxide for 3 min and rinsed three times with PBS. […]
(§3) The images of cell cultures immunostained for ALDH1A1 or CD44 were analyzed with ImageJ (NIH) and OriginLab (Microcal) software. […]

ALDH1A1 [2] = experiment: ALDH1A1 level by ELISA in curcumin-surviving lines; type: cell-based, human; conditions: all six surviving lines; t-test p<0.005
Description: (§4) To select for a curcumin-surviving cell subpopulation, each of the ESCC cell lines was cultured in 100-mm dishes (1×10^5 cells/dish) with complete DMEM and incubated at 37° C. until reaching near confluency, approximately 80%. After incubation, the medium was removed and the cells were incubated in complete DMEM containing either 40 or 60 μM curcumin in dissolved in 0.2% DMSO for 30 hrs. After incubation, the medium-containing curcumin was removed and replaced with complete DMEM to allow cells that survived the treatment to grow. After the surviving cells formed colonies (normally four weeks after treatment), the colonies were counted, trypsinized, and passaged. The cell lines that developed were designated the curcumin-surviving cell lines. To determine the level of ALDH1A1 and RelA (p65), the major subunit of transcription factor (NF-κB), on both curcumin-surviving cells and original cell lines, ELISA was performed as described previously. Briefly, each cell line was cultured in 96-well plates (5×10^4 cells/well) and incubated for 24 hrs at 37° C. After incubation, the wells were washed once with PBS and fixed with methanol for 5 min; the wells were then washed twice with PBS. […] The antigen-antibody reactions were measured by determining the optical density (O.D.) at 410 nm using MR-600 microwell plate reader (Dynatech Lab Inc.). The resulting absorbance was analyzed using ANOVA.

[3] = test system: RelA (p65), the major subunit of NF-κB; experiment: NF-κB level by ELISA in curcumin-surviving lines; type: cell-based, human
Description: as §4, with “PBS. Different dilutions of each antibody (anti-p65, Santa Cruz Biotechnology, SC-109, 200 μg/ml, and anti-ALDH1A1, Proteintech Group, 15910-1-AP, 133 μg/ml) were prepared in complete DMEM (1:50, 1:100, 1:200 and 1:500, 1:1000, 1:2000, respectively). The wells were incubated with 100 μl of each dilution (3 wells/dilution) for 2 hrs at 37° C. After incubation, the wells were washed with PBS three times and incubated with 100 μl/well of galactosidase-conjugated goat anti-rabbit secondary antibody (Southern Biotech, Birmingham, Ala.) (1:500 dilution in complete DMEM) for 2 hrs at 37° C.” for “PBS.”

KY-5 cell line [4] = experiment: crystal violet assay, cells remaining after curcumin; type: cell-based, human; conditions: 30 hrs
Description: (§5) To determine the effect of different doses of curcumin on the ESCC lines, each cell line was plated in 24-well plates (Corning) at a density of 5×10^4 cells/well in complete DMEM, and incubated at 37° C. Curcumin (Sigma-Aldrich, St Louis, Mo.) was dissolved in dimethyl sulfoxide (DMSO) to make a stock solution of 20 mM curcumin. For each experiment, stock solution was diluted to the final concentrations (20, 30, 40, 60 and 80 μM) in complete DMEM. Twenty-four hours after plating, the wells were washed with PBS once, and 1 ml of each curcumin dosage was added (4 wells/dosage) and incubated for 30 hrs. Four other wells received complete DMEM or complete DMEM with 0.2% DMSO as controls. The inhibition of cell growth in response to curcumin treatment was assayed with the crystal violet staining assay according to a standard protocol. Briefly, the cells in each well were washed once with PBS, stained with 200 μl crystal violet in 50% ethanol (10 mg/ml), and incubated at room temperature for 10 min. The crystal violet was then removed and the wells were washed two times with distilled water, and 600 μl of 1% sodium dodecylsulfate (SDS) in water was added to each well. The plates were maintained overnight at room temperature on a shaker to dissolve the dye. Absorbance was read at 490 nm using a Wallac Victor 1420 Multilabel plate reader (Perkin Elmer, Waltham, Mass.). The background readings from the SDS solution were subtracted from each reading and the percentage of cells remaining after curcumin treatment was calculated. The results were plotted in OriginPro 7.5 (OriginLab) and analyzed by ANOVA.
(§6) To assess the sensitivity of the six human ESCC lines to curcumin, the cell lines (TE-1, TE-8, KY-5, KY-10, YES-1, and YES-2) were plated in 24-well plates for 24 hrs and then exposed to 20, 30, 40, 60, and 80 μM curcumin and to 0.2% DMSO as a control for 30 hrs. The resulting cell density was determined by standard crystal violet assay. The cell density remaining after the treatment is shown in the dose-response curve (FIG. 2). […] However, KY-5 had the highest percentage of cells remaining at the highest curcumin concentration, and the YES-2 cell line had the lowest percentage of cells remaining. When the cell lines were ranked from low to high according to their sensitivity to 60 μM curcumin the order was: KY-5, YES-1, TE-8, TE-1, KY-10, and YES-2.

KY-10 cell line [5] = experiment: as above; type: cell-based, human; conditions: 30 hrs, concentration that kills half the cells
Description: as §5, §6

YES-2 cell line [6] = experiment: as above; type: cell-based, human; conditions: 30 hrs
Description: as §5, §6

CD44 = CD44 immunocytochemistry of curcumin-surviving lines; type: cell-based, human
Description: as §1, §2, §3

TE-8 cell line = experiment: surviving colonies after curcumin treatment; type: cell-based, human; conditions: 60 μM curcumin, 30 hrs
Description: as §1
(§7) According to the dose-response results, 60 μM curcumin was chosen to select for the curcumin-surviving cell line subpopulations. To establish this subpopulation, 1×10^5 cells from each ESCC lines were plated into a 100 mm tissue culture dishes and incubated until they reached near confluency. The cells were then exposed to 60 μM curcumin for 30 hrs. and the surviving colonies formed were counted. The number of colonies formed after 60 μM curcumin treatment varied among the six cell lines.

TE-1 cell line = experiment: surviving colonies after curcumin treatment; type: cell-based, human; conditions: 60 μM curcumin, 30 hrs
Description: as §1, §7

YES-1 cell line = experiment: surviving colonies after curcumin treatment; type: cell-based, human; conditions: 60 μM curcumin, 30 hrs
Description: as §1, §7

KY-5 cell line [7] = experiment: surviving colonies after curcumin treatment; type: cell-based, human; conditions: 60 μM curcumin, 30 hrs
Description: as §1, §7

KY-10 cell line [8] = experiment: surviving colonies after curcumin treatment; type: cell-based, human; conditions: 60 μM curcumin, 30 hrs
Description: as §1, §7

YES-2 cell line [9] = experiment: surviving colonies after curcumin treatment; type: cell-based, human; conditions: 30 hrs
Description: as §1, §7

[10] = test system: six human ESCC lines (TE-1, TE-8, KY-5, KY-10, YES-1, YES-2); experiment: crystal violet assay, cells remaining after curcumin; type: cell-based; conditions: 20-80 μM curcumin, 30 hrs; all six ESCC lines
Description: as §5, with “The inhibition of cell growth in response to curcumin treatment was assayed with the crystal violet staining assay according to a standard protocol. Briefly, the cells in each well were washed once with PBS, stained with 200 μl crystal violet in 50% ethanol (10 mg/ml), and incubated at room temperature for 10 min. The crystal violet was then removed and the wells were washed two times with distilled water, and 600 μl of 1% sodium dodecylsulfate (SDS) in water was added to each well. The plates were maintained overnight at room temperature on a shaker to dissolve the dye.” left out
To assess the sensitivity of the six human ESCC lines to curcumin, the cell lines (TE-1, TE-8, KY-5, KY-10, YES-1, and YES-2) were plated in 24-well plates for 24 hrs and then exposed to 20, 30, 40, 60, and 80 μM curcumin and to 0.2% DMSO as a control for 30 hrs. The resulting cell density was determined by standard crystal violet assay. […]

[11] = concentration that kills half the cells

With `COc1cc(/C=C/C(=O)CC(=O)/C=C/c2ccc(O)c(OC)c2)ccc1O` [curcumin] the “percentage of high ALDH1A1-staining cells in curcumin-surviving line” value (ALDH1A1 [1]; KY-5S, original lines ranged 11.3% to 55.7%, KY-5 greatest) was 19%, the “percentage of high ALDH1A1-staining cells in curcumin-surviving line” value (ALDH1A1 [1]; TE-8S) was 0% and the “ALDH1A1 level of curcumin-surviving lines compared to original lines” value (ALDH1A1 [2]) was “lower ALDH1A1 level”. For the same compound, the “NF-κB level of curcumin-surviving lines compared to original lines” value ([3]; KY-5, YES-1 and YES-2 surviving lines, t-test p<0.005) was “lower NF-κB levels”, the “NF-κB level of curcumin-surviving line compared to original line” value ([3]; KY-10 surviving line, t-test p>0.05) was “no difference” and the “NF-κB level of curcumin-surviving lines compared to original lines” value ([3]; TE-1 and TE-8 surviving lines) was “increase of NF-κB level”. For the same compound, the “cells remaining after curcumin” value (KY-5 cell line [4]; 80 μM curcumin, crystal violet) was 37%, the LD50 (KY-5 cell line [4]; [11]) was 32 µM and the LD50 (KY-10 cell line [5]) was “less than 10 μM”. For the same compound, the “attached cells remaining after curcumin” value (YES-2 cell line [6]; 80 μM curcumin, crystal violet) was 4%, the LD50 (YES-2 cell line [6]; [11]) was 15 µM and the “percentage of high CD44-staining cells in curcumin-surviving line” value (CD44; YES-1S, survived 60 μM curcumin, original YES-1 16%) was 6.5%. For the same compound, the “percentage of high CD44-staining cells in curcumin-surviving line” value (CD44; YES-2S, survived 40 μM curcumin, original YES-2 19%) was 9.2%, the “number of surviving colonies formed” value (TE-8 cell line) was 17 and the “number of surviving colonies formed” value (TE-1 cell line) was 8. For the same compound, the “number of surviving colonies formed” value (YES-1 cell line) was 25, the “number of surviving colonies formed” value (KY-5 cell line [7]) was “too many colonies to count” and the “number of surviving colonies formed” value (KY-10 cell line [8]) was 19. The “number of surviving colonies formed” value (YES-2 cell line [9]; 40 μM curcumin) was 15, the “number of surviving colonies formed” value (YES-2 cell line [9]; 60 μM curcumin) was 0 and the reduction in cells [10] was “reduction in cells in a dosage dependent manner”.
